EC50 and IC50 data for 29 compounds are collected here from patent US7829665B2 (priority 2005, dated 2010).

Like-named read-outs stand apart in the source and are kept apart here.

In test [1] the test system is HCV sub-genomic replicon in GS4.3 cells (HuH-7 hepatoma cells). As to the kind of experiment: Quantitation by ELISA of Neomycin phosphotransferase II (NPTII) in the HCV sub-genomic replicon, GS4.3. In kind it is cell-based, hepatitis C virus. Put shortly:
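HuH-7 GS4.3 cells carrying HCV sub-genomic replicon 1377/NS3-3′, treated 72 h at 37 °C without G418 with 3-fold dilutions from 10 μM to 56 pM (1% DMSO). NPTII in cell lysates measured by direct ELISA with TMB readout at 450 nm. EC50 from 4-parameter fit of percent DMSO-control signal.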
Background: An ELISA detects its analyte on a solid surface through an enzyme-linked reagent.

Test [2] deals with T1, full-length NS3/NS4A-2 (HCV NS3 protease) (Hepatitis C virus genotype 1a, UniProt P27958).
T1 construct: Recombinant E. coli or Baculovirus full-length NS3 was diluted to 3.33 μM with assay buffer; made in house; host or cells: E. coli or baculovirus (BV) expression system
The test is described as follows: NS3-NS4 protease assay / NS3 inhibition assay (RETS1 substrate, fluorescence kinetic read). Format: biochemical. Put shortly:
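Full-length NS3 from E. coli (2 nM in assay) or baculovirus (3 nM) was precomplexed with excess NS4A-2 peptide, then preincubated 10 min at room temperature with serially diluted compounds starting at 50 microM. Reaction was started with RETS1 substrate at 8 μM before addition and read kinetically for 30 min (ex 335/em 495 nm). Four-parameter IC50s were converted to Ki by Cheng-Prusoff using Km 2.03 μM (E. coli) or 1.74 μM (BV).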

The mark [3] stands for this setting: Hepatitis C virus, Huh-7, GS4.3 cells, 72 h incubation, NPTII ELISA, read-out: Replicon EC50.
Where [4] appears, read: recombinant E. coli or Baculovirus full-length NS3 with NS4A-2, read-out: NS3-NS4 IC50.

T1 sequence (P27958 1027-1657): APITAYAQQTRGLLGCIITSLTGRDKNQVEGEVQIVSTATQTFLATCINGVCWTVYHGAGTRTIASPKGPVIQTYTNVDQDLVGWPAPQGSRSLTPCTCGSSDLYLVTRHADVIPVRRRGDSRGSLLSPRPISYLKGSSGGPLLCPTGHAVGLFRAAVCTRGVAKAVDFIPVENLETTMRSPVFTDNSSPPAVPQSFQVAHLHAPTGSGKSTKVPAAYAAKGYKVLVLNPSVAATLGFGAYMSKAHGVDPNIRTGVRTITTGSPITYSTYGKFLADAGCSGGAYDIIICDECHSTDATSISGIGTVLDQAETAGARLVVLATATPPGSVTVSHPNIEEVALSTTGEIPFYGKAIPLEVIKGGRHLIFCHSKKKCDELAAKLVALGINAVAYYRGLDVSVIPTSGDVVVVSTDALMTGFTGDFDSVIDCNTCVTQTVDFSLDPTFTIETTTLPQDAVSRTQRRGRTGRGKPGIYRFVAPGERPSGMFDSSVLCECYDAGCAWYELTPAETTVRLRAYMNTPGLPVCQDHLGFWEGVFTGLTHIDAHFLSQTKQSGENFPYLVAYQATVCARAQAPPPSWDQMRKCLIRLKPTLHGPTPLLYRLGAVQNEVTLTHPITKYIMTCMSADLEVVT

Broadly, the EC50 is the concentration that produces a half-maximal response. By IC50 is commonly meant the concentration needed to halve the response being measured. In the case of `CC(C)(C)OC(=O)N[C@H]1CCCCC/C=C\[C@@H]2C[C@@]2(C(=O)NS(=O)(=O)C2CC2)NC(=O)C2Cc3cc(Oc4cccc(C(F)(F)F)c4)ccc3CN2C1=O` (stereo partly drawn) [Compound 2008, tert-Butyl (1aS,9S,19aR,Z)-19a-(cyclopropylsulfonylcarbamoyl)-10,18-dioxo-15-(3-(trifluoromethyl)phenoxy)-1a,4,5,6,7,8,9,10,12,17,17a,18,19,19a-tetradecahydro-1H-1,14-diaza-bicyclo[13.1.0]hexadeca-1(15), 2-dieno[11,12-b]isoquinolin-9-ylcarbamate], the EC50 in test [1] (setting [3]) is less than 10000 nM. Besides, the IC50 in test [2] (setting [4]) was less than 1000 nM.
On to `N[C@H]1CCCCC/C=C\[C@@H]2C[C@@]2(C(=O)NS(=O)(=O)C2(Cc3ccccc3)CC2)NC(=O)[C@@H]2C[C@@H](OC(=O)N3Cc4cccc(Cl)c4C3)CN2C1=O` [Compound 163], for which, in test [1] (setting [3]), the EC50 is less than 10000 nM. Besides, the IC50 in test [2] is less than 100 nM.
With `O=C(N[C@H]1CCCCC/C=C\[C@@H]2C[C@@]2(C(=O)NS(=O)(=O)N2CCCC2)NC(=O)[C@@H]2C[C@@H](OC(=O)N3Cc4cccc(F)c4C3)CN2C1=O)OC1CCCC1` [Compound 216], the EC50 in test [1] (setting [3]) was less than 100 nM. Further, the IC50 in test [2] (setting [4]) is less than 100 nM.
For the compound `CCOC1(S(=O)(=O)NC(=O)[C@@]23C[C@H]2/C=C\CCCCC[C@H](N)C(=O)N2C[C@H](OC(=O)N4Cc5cccc(Cl)c5C4)C[C@H]2C(=O)N3)CC1` [Compound 167], the EC50 in test [1] (setting [3]) was less than 10000 nM. Moreover, the IC50 in test [2] is less than 100 nM.
As for `O=C(N[C@H]1CCCCC/C=C\[C@@H]2C[C@@]2(C(=O)NS(=O)(=O)NC2CC2)NC(=O)[C@@H]2C[C@@H](OC(=O)N3CCc4ccccc4C3)CN2C1=O)OC1CCCC1` [Compound 231], in test [1] (setting [3]), the EC50 was less than 100 nM. The IC50 in test [2] (setting [4]) was less than 100 nM.
`CC(C)(C)OC(=O)N[C@H]1CCCCC/C=C\[C@@H]2C[C@@]2(C(=O)NS(=O)(=O)C2CC2)NC(=O)[C@@H]2C[C@@H](OC(=O)N3Cc4ccc(C(F)(F)F)cc4C3)CN2C1=O` [Compound 112]: the EC50 in test [1] (setting [3]) is less than 100 nM. Also, the IC50 in test [2] (setting [4]) was less than 100 nM.
For `CN(C)C(=O)NC(=O)[C@@]12C[C@H]1/C=C\CCCCC[C@H](NC(=O)OC(C)(C)C)C(=O)N1C[C@H](OC(=O)N3Cc4cccc(F)c4C3)C[C@H]1C(=O)N2` [Compound 235], the EC50 in test [1] (setting [3]) is less than 100 nM. For the same compound, the IC50 in test [2] (setting [4]) is less than 100 nM.
As to `N[C@H]1CCCCC/C=C\[C@@H]2C[C@@]2(C(=O)NS(=O)(=O)N2CCCC2)NC(=O)[C@@H]2C[C@@H](OC(=O)N3Cc4cccc(Cl)c4C3)CN2C1=O` [Compound 220], the EC50 in test [1] (setting [3]) is less than 1000 nM. The IC50 in test [2] was less than 100 nM.
With `O=C1N[C@]2(C(=O)NS(=O)(=O)C3CC3)C[C@H]2/C=C\CCCCC[C@H](NCC2CCCO2)C(=O)N2C[C@H](OC(=O)N3Cc4cccc(F)c4C3)C[C@@H]12` (stereo partly shown) [Compound 916], in test [1] (setting [3]), the EC50 is less than 1000 nM. Moreover, the IC50 in test [2] (setting [4]) was less than 100 nM.
For `CC(C)(C)CNC(=O)[C@@]12C[C@H]1/C=C\CCCCC[C@H](NC(=O)OC(C)(C)C)C(=O)N1C[C@H](OC(=O)N3Cc4cccc(F)c4C3)C[C@H]1C(=O)N2` [Compound 616] the same measures were less than 1000 nM and less than 1000 nM.
Taken in the same sequence, the figures for `O=C(N[C@H]1CCCCC/C=C\[C@@H]2C[C@@]2(C(=O)NS(=O)(=O)C2CC2)NC(=O)[C@@H]2C[C@@H](OC(=O)N3Cc4cccc(Cl)c4C3)CN2C1=O)OC1CCCC1` [Compound 141] were less than 100 nM and less than 100 nM.
Turning to `CC(C)(C)OC(=O)N[C@H]1CCCCC/C=C\[C@@H]2C[C@@]2(C(=O)NS(=O)(=O)C2CC2)NC(=O)[C@@H]2C[C@@H](OC(=O)N3Cc4cccc(Cl)c4C3)CN2C1=O` [Compound 115], in test [1] (setting [3]), the EC50 is less than 100 nM. The IC50 in test [2] (setting [4]) is less than 100 nM.
As to `O=C1N[C@]2(C(=O)NS(=O)(=O)C3CC3)C[C@H]2/C=C\CCCCC[C@H](NCC2CC2)C(=O)N2C[C@H](OC(=O)N3Cc4cccc(F)c4C3)C[C@@H]12` [Compound 910], the EC50 in test [1] (setting [3]) was less than 1000 nM. Also, in test [2] (setting [4]), the IC50 was less than 100 nM.
On to `CC(C)(C)OC(=O)N[C@H]1CCOCCCC[C@@H]2C[C@@]2(C(=O)NS(=O)(=O)C2CC2)NC(=O)[C@@H]2C[C@@H](OC(=O)N3Cc4cccc(F)c4C3)CN2C1=O` [Compound 1028, (2R,6S,13aR,14aR,16aS)-6-(tert-butoxycarbonylamino)-14a-(cyclopropylsulfonylcarbamoyl)-5,16-dioxohexadecahydro-1H-cyclopropa(j)pyrrolo[1,2-f][1,6,9]oxadiazacyclopentadecin-2-yl 4-fluoroisoindoline-2-carboxylate], for which the EC50 in test [1] (setting [3]) was less than 100 nM. In addition, in test [2] (setting [4]), the IC50 is less than 100 nM.
Regarding “(1S,4R,6S,14S) tert-butyl 4-Cyclopropanesulfonylaminocarbonyl-2,15-dioxo-3,16-diaza-tricyclo[14.3.0.0^4,6]nonadec-7-ene-14-yl carbamate [Compound 2137]”, the EC50 in test [1] (Table 26, read-out: EC50) is more than 10000 nM. Further, the IC50 in test [2] (setting [4]) was more than 10000 nM.
As for `CC(C)(C)OC(=O)N[C@H]1CCCCC/C=C\[C@@H]2C[C@@]2(C(=O)NS(=O)(=O)C2CC2)NC(=O)[C@@H]2C[C@@H](OC(=O)Nc3nc4ccccc4s3)CN2C1=O` [Compound 140], in test [1] (setting [3]), the EC50 was less than 1000 nM. Further, the IC50 in test [2] (setting [4]) is less than 100 nM.
For `CC(C)(C)OC(=O)N[C@H]1CCCCC/C=C\[C@@H]2C[C@@]2(C(=O)NS(=O)(=O)C2(Cc3ccccc3)CC2)NC(=O)[C@@H]2C[C@@H](OC(=O)N3Cc4ccccc4C3)CN2C1=O` [Compound 101] the same measures were less than 100 nM and less than 100 nM.
For `CN(Cc1ccccc1)S(=O)(=O)NC(=O)[C@@]12C[C@H]1/C=C\CCCCC[C@H](NC(=O)OC(C)(C)C)C(=O)N1C[C@H](OC(=O)N3Cc4cccc(F)c4C3)C[C@H]1C(=O)N2` [Compound 210] the same measures were less than 100 nM and less than 100 nM.
Taken in the same sequence, the figures for `O=C(N[C@H]1CCCCC/C=C\[C@@H]2C[C@@]2(C(=O)NS(=O)(=O)Nc2ccc(Cl)cc2)NC(=O)[C@@H]2C[C@@H](OC(=O)N3Cc4cccc(F)c4C3)CN2C1=O)OC1CCCC1` [Compound 219] were less than 10000 nM and less than 100 nM.
In the case of `CC(C)(C)OC(=O)N[C@H]1CCCCC/C=C\[C@@H]2C[C@@]2(C(=O)NS(=O)(=O)N2CCOCC2)NC(=O)[C@@H]2C[C@@H](OC(=O)N3Cc4cccc(F)c4C3)CN2C1=O` [Compound 209], in test [1] (setting [3]), the EC50 was less than 100 nM. Further, the IC50 in test [2] (setting [4]) was less than 100 nM.
As for `CC(C)(C)OC(=O)N[C@H]1CCOCC/C=C\[C@@H]2C[C@@]2(C(=O)NS(=O)(=O)C2CC2)NC(=O)[C@@H]2C[C@@H](OC(=O)N3Cc4cccc(F)c4C3)CN2C1=O` [Compound 1027, (2R,6S,13aS,14aR,16aS,Z)-6-(tert-butoxycarbonylamino)-14a-(cyclopropylsulfonylcarbamoyl)-5,16-dioxo-2,3,5,6,7,8,10,11,13a,14,14a,15,16,16a-tetradecahydro-1H-cyclopropa(j)pyrrolo[1,2-f][1,6,9]oxadiazacyclopentadecin-2-yl 4-fluoroisoindoline-2-carboxylate], in test [1] (setting [3]), the EC50 was less than 100 nM. In test [2], this compound came in with an IC50 of less than 100 nM.
For the compound `O=C(N[C@H]1CCCCC/C=C\[C@@H]2C[C@@]2(C(=O)NS(=O)(=O)N2CCC(F)(F)C2)NC(=O)[C@@H]2C[C@@H](OC(=O)N3Cc4cccc(F)c4C3)CN2C1=O)OC1CCCC1` [Compound 225], the EC50 in test [1] (setting [3]) is less than 100 nM. The IC50 in test [2] (setting [4]) was less than 100 nM.
With `CC(C)(C)OC(=O)N[C@H]1CCCCC/C=C\[C@@H]2C[C@@]2(C(=O)NS(=O)(=O)C2CC2)NC(=O)[C@@H]2C[C@@H](OC(=O)N3Cc4cccc(N5CCOCC5)c4C3)CN2C1=O` [Compound 158], in test [1] (setting [3]), the concentration giving a half-maximal response (EC50) is less than 100 nM. In test [2] (setting [4]), the IC50 is less than 100 nM.
For `CC(C)(C)OC(=O)N[C@H]1CCCCC/C=C\[C@@H]2C[C@@]2(C(=O)Nc2cc(C3CC3)[nH]n2)NC(=O)[C@@H]2C[C@@H](OC(=O)N3Cc4cccc(F)c4C3)CN2C1=O` [Compound 630], the EC50 in test [1] (setting [3]) was less than 10000 nM. In test [2] (setting [4]), the IC50 was less than 1000 nM.
Taken in the same sequence, the figures for `CC(C)(C)OC(=O)N[C@H]1CCCCC/C=C\[C@@H]2C[C@@]2(C(=O)NS(=O)(=O)C(C)(C)C)NC(=O)[C@@H]2C[C@@H](OC(=O)N3Cc4ccccc4C3)CN2C1=O` [Compound 102] were less than 1000 nM and less than 100 nM.
For `O=C(N[C@H]1CCCCC/C=C\[C@@H]2C[C@@]2(C(=O)NS(=O)(=O)NCC(F)(F)F)NC(=O)[C@@H]2C[C@@H](OC(=O)N3Cc4cccc(F)c4C3)CN2C1=O)OC1CCCC1` [Compound 223] the same measures were less than 1000 nM and less than 100 nM.
With `CC(C)(C)OC(=O)N[C@H]1CCCCC/C=C\[C@@H]2C[C@@]2(C(=O)NS(=O)(=O)C2CC2)NC(=O)[C@@H]2C[C@@H](OC(=O)N3CCc4cccc(Cl)c4C3)CN2C1=O` [Compound 255], in test [1] (setting [3]), the EC50 is less than 100 nM. Besides, in test [2] (setting [4]), the IC50 is less than 100 nM.
Turning to `O=C1N[C@]2(C(=O)NS(=O)(=O)C3CC3)C[C@H]2/C=C\CCCCC[C@H](N(CC2CC2)CC2CC2)C(=O)N2C[C@H](OC(=O)N3Cc4cccc(F)c4C3)C[C@@H]12` [Compound 911], the EC50 in test [1] (setting [3]) was less than 10000 nM. For the same compound, the IC50 in test [2] (setting [4]) is less than 1000 nM.
In the case of `O=C(Cc1ccc(C(F)(F)F)cc1)N[C@H]1CCCCC/C=C\[C@@H]2C[C@@]2(C(=O)NS(=O)(=O)C2CC2)NC(=O)C2CCCN2C1=O` (stereo partly shown) [Compound 2142], the EC50 in test [1] (Hepatitis C virus, Huh-7, Table 26, read-out: EC50) was more than 10000 nM. Also, the concentration for half-maximal inhibition (IC50) in test [2] (setting [4]) is less than 10000 nM.
